Data set [1] relates to Oryza sativa. Briefly: Relieving activity against bensulfuron-methyl induced injury to Oryza sativa (rice) assessed as growth rate at 0.1 uM (Rbv = 46 to 53%). It counts as functional.
Data set [2] is described as follows: Hydrophobicity, log K of the compound. The format is physicochemical. As to conditions: octanol/water.
Data set [3] has as its system Oryza sativa. The data set is described as follows: Effect on Oryza sativa (rice) assessed as growth rate at 0.1 uM relative to control. The conditions noted are these: in vivo. It counts as organism-based.
Data set [4] relates to Oryza sativa. The data set is described as follows: Safener indices, ratio of compound effect of Oryza sativa (rice) growth rate to relieving activity against bensulfuron-methyl induced injury to Oryza sativa growth rate at 10 uM.
Data set [5] relates to Oryza sativa. Briefly: Effect on Oryza sativa (rice) assessed as growth rate at 10 uM relative to control. The format is organism-based. As to conditions: in vivo.
Data set [6] has as its system Oryza sativa. The data set is described as follows: Relieving activity against bensulfuron-methyl induced injury to Oryza sativa (rice) assessed as growth rate at 10 uM (Rbv = 46 to 53%). The format is functional.
For data set [7], the system named is Oryza sativa. The data set is described as follows: Safener indices, ratio of compound effect of Oryza sativa (rice) growth rate to relieving activity against bensulfuron-methyl induced injury to Oryza sativa growth rate at 1 uM.
Data set [8] concerns Oryza sativa. Briefly: Relieving activity against bensulfuron-methyl induced injury to Oryza sativa (rice) assessed as growth rate at 1 uM (Rbv = 46 to 53%). It counts as functional.
The subject of data set [9] is Oryza sativa. Briefly: Safener indices, ratio of compound effect of Oryza sativa (rice) growth rate to relieving activity against bensulfuron-methyl induced injury to Oryza sativa growth rate at 0.1 uM.
The test system of data set [10] is Oryza sativa. The data set is described as follows: Effect on Oryza sativa (rice) assessed as growth rate at 1 uM relative to control. It counts as organism-based. As to conditions: in vivo.

Consider `C[C@H](NC(=O)Nc1ccccc1)c1ccccc1`, for which the Activity in the data set on Oryza sativa [1] worked out at 67%; in the data set on Oryza sativa [3], 101%; with Oryza sativa [5], 90%; in the data set on Oryza sativa [6], 80%; in the data set with Oryza sativa [8], 80%; in the data set with Oryza sativa [10], 98%. Also, the “log K” value in data set [2] is listed as 0.28. The Ratio was found to be 63 with Oryza sativa [4], 58 in the data set on Oryza sativa [7] and 30 with Oryza sativa [9].

As for `C[C@@H](NC(=O)Nc1ccccc1)c1ccccc1`, the Activity is listed as 56% in the data set on Oryza sativa [1]; 101% in the data set with Oryza sativa [3]; 79% with Oryza sativa [5]; 77% with Oryza sativa [6]; 69% with Oryza sativa [8]; 98% in the data set with Oryza sativa [10]. Also, in data set [2], the “log K” value is 0.28. In addition, the Ratio is reported as 60 in the data set on Oryza sativa [4], 36 with Oryza sativa [7] and 7 with Oryza sativa [9].

Turning to `Cc1ccccc1NC(=O)N[C@H](C)c1ccccc1`, the Activity with Oryza sativa [1] amounted to 52%; in the data set on Oryza sativa [3], 100%; in the data set with Oryza sativa [5], 99%; with Oryza sativa [6] it was 71%; with Oryza sativa [8] it was 55%; in the data set on Oryza sativa [10], 100%. The “log K” value in [2] came to 0.337. Besides, the Ratio was determined as 42 with Oryza sativa [4], 12 in the data set on Oryza sativa [7] and 6 with Oryza sativa [9].

For the compound `Cc1ccccc1NC(=O)N[C@@H](C)c1ccccc1`, the Activity in the data set on Oryza sativa [1] came out at 52%; with Oryza sativa [3], 100%; with Oryza sativa [5], 99%; in the data set with Oryza sativa [6] it was 79%; in the data set with Oryza sativa [8], 60%; in the data set on Oryza sativa [10] it was 99%. The “log K” value in data set [2] is given as 0.337. For the same compound, the Ratio is reported as 58 in the data set on Oryza sativa [4], 21 in the data set with Oryza sativa [7] and 5 in the data set on Oryza sativa [9].

Consider `Cc1cccc(NC(=O)N[C@H](C)c2ccccc2)c1`, for which the Activity with Oryza sativa [1] is listed as 55%; in the data set with Oryza sativa [3], 100%; in the data set with Oryza sativa [5] it was 47%; in the data set with Oryza sativa [6], 45%; in the data set with Oryza sativa [8], 60%; in the data set on Oryza sativa [10], 98%. Further, in data set [2], the “log K” value is 0.374. For the same compound, the Ratio in the data set on Oryza sativa [4] is reported as 29; with Oryza sativa [7], 22; in the data set with Oryza sativa [9], 10.

Take `Cc1ccc(NC(=O)NC(C)(C)c2ccccc2)cc1` [DAIMURON]: the Activity with Oryza sativa [1] came out at 74%; with Oryza sativa [3], 99%; in the data set with Oryza sativa [5], 77%; in the data set with Oryza sativa [6], 79%; with Oryza sativa [8], 88%; in the data set on Oryza sativa [10], 89%. In addition, in data set [2], the “log K” value is on record as 0.487. For the same compound, the Ratio was determined as 66 in the data set on Oryza sativa [4], 78 in the data set on Oryza sativa [7] and 47 in the data set with Oryza sativa [9].

The record behind these values is ChEMBL document CHEMBL3045406, “Enantioselective Relieving Activity of α-Methylbenzylphenylureas toward Bensulfuron-methyl Injury to Rice (Oryza sativa)” (Biosci Biotechnol Biochem, 1999).
